The experiment concerns the target Human immunodeficiency virus type 1 protease (Human immunodeficiency virus 1, UniProt Q72874). Put plainly: Inhibitory activity against HIV-1 Protease expressed in Escherichia coli.

Usually Ki stands for a measure of affinity in units of concentration, obtained from inhibition or displacement. A lower Ki goes with tighter binding.

`CC(=O)c1cccc(CN2[C@H](COc3ccccc3)[C@H](O)[C@@H](O)[C@@H](COc3ccccc3)N(Cc3cccc(C(C)=O)c3)S2(=O)=O)c1` had an inhibition constant Ki of 59 nM. Compound `C/C(=N/O)c1cccc(CN2[C@H](COc3ccccc3)[C@H](O)[C@@H](O)[C@@H](COc3ccccc3)N(Cc3cccc(/C(C)=N\O)c3)S2(=O)=O)c1` gave a Ki of 3.4 nM. As to `O=S1(=O)N(Cc2cccc(CCO)c2)[C@H](COc2ccccc2)[C@H](O)[C@@H](O)[C@@H](COc2ccccc2)N1Cc1cccc(CCO)c1`, the affinity corresponds to a Ki of 43 nM. For the compound `O=S1(=O)N(Cc2ccc(CO)cc2)[C@H](COc2ccccc2)[C@H](O)[C@@H](O)[C@@H](COc2ccccc2)N1Cc1ccc(CO)cc1`, the inhibition constant Ki stood at 3.1 nM. To `COC(Cc1cccc(CN2[C@H](COc3ccccc3)[C@H](O)[C@@H](O)[C@@H](COc3ccccc3)N(Cc3cccc(CC(OC)OC)c3)S2(=O)=O)c1)OC` belongs 540 nM. To `COC(=O)c1ccc(CN2[C@H](COc3ccccc3)[C@H](O)[C@@H](O)[C@@H](COc3ccccc3)N(Cc3ccc(C(=O)OC)cc3)S2(=O)=O)cc1` belongs 84 nM.

The values above are taken from ChEMBL document CHEMBL1132426, “Inhibitors of the C(2)-symmetric HIV-1 protease: nonsymmetric binding of a symmetric cyclic sulfamide with ketoxime groups in the P2/P2' side chains” (J Med Chem, 1999).
